Data on one compound can be found in patent US10660910B2, “Use of sedoheptulose for prevention or treatment of inflammation” (C7 SUGAR GMBH, priority 2013, dated 2020).

Data set [1] concerns mature murine adipocytes. Nature of the data set: Mature murine adipocytes ceiling culture, cytokine mRNA by RT-PCR. The following applies: three days in GFS vs GF media. Format: cell-based, mouse. As for the experimental part:
Anterior and posterior subcutaneous adipose tissue and epididymal white adipose tissue was isolated from transgenic CARKL-mice and wild-type littermate controls. Adipose tissue was digested as described above for the human sample. After centrifugation, the layer of floating mature adipocytes was removed and re-centrifuged at 100 rcf for 10 minutes. 150 μL, of packed adipocytes were cultured under a floating coverslip in six-well plates, in DMEM/F12, 15% calf serum (PAA). 24 hours after isolation, the wells were washed twice with PBS and the medium was exchanged to DMEM/F12 with a total carbohydrate load of 3 g/L, containing 1.5 g/L glucose and fructose, or 1 g/L each of glucose, fructose and sedoheptulose, respectively. Three days later, the cells were harvested for RNA isolation using TRIreagent (Sigma).
Briefly, total RNA was extracted and reverse-transcribed using commercial kits (QIAGEN, Applied Biosystems). Quantitative real-time PCRs were performed on an AbiPRISM 7900HT real-time cycler using iTaq SYBR Green Supermix with ROX (BioRad) to measure CARKL, adiponectin, UCP-1, TNFa, IL-6, MCP-1, and beta-actin expression as previously described (Haschemi et al., Cell Metab. 15 (2012), 813-826). Expression of target gene was normalized to beta-actin expression. Relative expression of target gene was calculated by the delta-delta CT method.

The subject of data set [2] is WT hepatocytes. Nature of the data set: Glucose-induced ECAR in hepatocytes. Format: cell-based, mouse. Particulars: WT hepatocytes in GFS vs GF media, 1 hr carbohydrate starvation, then glucose 1 g/L, FIG. 4E. As for the experimental part:
Hepatocytes were isolated from male wild-type and CARKL overexpressing mice after the mice were sacrificed by hepatic in situ collagenase perfusion. After perfusion, the liver was quickly removed, minced, and filtered through a cell strainer (Fisher Scientific, Inc) into a 50 ml sterile tube. Hepatocytes in the resulting filtrate were purified from the nonparenchymal cells by centrifugation steps. The isolated hepatocytes were seeded into plates at a concentration of 0.25×10^6/ml in respective DMEM-media containing 10% FBS and indicated carbohydrate mixes at 3 g/L (glucose and fructose (GF), or glucose, fructose and sedoheptulose (GFS)) at least two days before experiments were performed.
The XF-Analyzer (Seahorse Bio.) was used to measure changes in cellular metabolism induced by different carbohydrates. Extracellular acidification rates (ECAR, mpH/min) and oxygen consumption rates (OCR, pmoles/min) were recorded in primary human adipocytes and primary murine hepatocytes according to the manufacture instructions. Briefly, cells were seeded in seahorse cell plates at a density of 10^4 cells per well for adipocytes and 0.5×10^5 cells per well for hepatocytes. […] Changes induced by the different carbohydrate sources were expressed as relative change in % to illustrate the effect of each carbon source.

Data set [3] relates to osteoclasts. The data set can be described thus: In vitro bone resorption assay. Type of data set: cell-based, mouse. As for the experimental part:
Mouse bones were isolated from male wild-type and CARKL overexpressing mice and bone marrow wash flushed, washed and cleared from redblood cells by lysis, and subsequently differentiated in DMEM containing 25 mM glucose and 20 ng/ml M-CSF. After 4 days, cells for osteoclast differentiation were harvested and seeded in corning osteo assay plates with differentiation media (see below), and for primary bone marrow derived macrophages (BMDM) the medium was renewed and further supplemented with M-SCF for two days. Differentiated BMDM were then seeded in respective DMEM-media containing 10% FBS and indicated carbohydrate mixes at 3 g/L (glucose and fructose (GF), or glucose, fructose and sedoheptulose (GFS)) at least two days before experiments were performed. Osteoclast precursor cells (bone marrow cells treated with 20 ng/ml M-CSF for 4 days) were plated in 24-well Corning Osteo Assay plate in the presence of 10 ng/ml M-CSF and 100 ng/ml RANKL in alpha-MEM medium containing 10% FBS and 3 g/L either glucose and fructose (GF), or glucose, fructose, and sedoheptulose (GFS). The Medium was renewed every third day. […] Each well was entirely photographed by TissueFax with an ×20 objective and all visible resorption pits were counted and analysed blinded.

A short description of data set [4]: Glucose and sedoheptulose measurement in human serum before and after carrot meal (GC-MS). Particulars: humans, two hours after a meal of mainly steamed carrots (~700 g per male adult) vs overnight fasted, n=4, FIG. 1B. Format: in vivo. An excerpt: Fresh carrots with an Austrian “organic-certificate” were sliced into small pieces and snap-frozen in liquid nitrogen. The same procedure was applied to leaves freshly harvested from indoor-grown Sedum Spectabile plants. Three samples of each tissue were pooled and homogenized to powder by glass-beads. The carbohydrate rich fractions of the samples were isolated by 20% H2O and 80% MeOH extraction solution spiked with 13 C standards and processed for standard gas-chromatography coupled to mass spectrometry (GC-MS). Glucose and sedoheptulose were identified by their individual masses and their relative amount was derived from the peak area of each individual analyte normalized to 13 C content. Glucose and sedoheptulose were also measured in equal volumes of serum from overnight fasted or carrot fed individuals. The carrots were steamed and some olive-oil, salt and pepper were used for flavour. Two hours before and two hours after the carrot containing meal human serum was prepared in VACUETTE® Z Serum Sep tubes from blood. Serum samples were processed as previously described and also analyzed by GC-MS as detailed above and in Ruiz-Matute AI et al., Chromatogr B Analyt Technol Biomed Life Sci. (2011) May 15 879(17-18).

Data set [5] has as its system Glucose-6-phosphate dehydrogenase (G6PD) in hepatocytes. Nature of the data set: Glucose-6-phosphate dehydrogenase activity assay (enzyme histochemistry) in hepatocytes. Type of data set: cell-based, mouse. The following applies: WT cells incubated in cell culture media with sedoheptulose; compared with phenotype of CARKL overexpressing cells; data not shown. The procedure:
Hepatocytes were isolated from male wild-type and CARKL overexpressing mice after the mice were sacrificed by hepatic in situ collagenase perfusion. After perfusion, the liver was quickly removed, minced, and filtered through a cell strainer (Fisher Scientific, Inc) into a 50 ml sterile tube. Hepatocytes in the resulting filtrate were purified from the nonparenchymal cells by centrifugation steps. The isolated hepatocytes were seeded into plates at a concentration of 0.25×10^6/ml in respective DMEM-media containing 10% FBS and indicated carbohydrate mixes at 3 g/L (glucose and fructose (GF), or glucose, fructose and sedoheptulose (GFS)) at least two days before experiments were performed. Cells were grown on polystyrene vessel tissue culture treated glass slides, snap frozen in liquid nitrogen and kept at −80° C. The enzyme histochemical procedure was based on the tetrazolium salt method as described by Van Noorden and Frederiks. […] The medium was freshly prepared immediately before incubation. Control reactions additionally contained 40 mM glucosamine-6-phosphate. Cells were incubated at room temperature for 15 minutes under continuous mixing by orbital shaker. After incubation, cells were washed 3×5 minutes in […] phosphate buffered saline, dried, and mounted in glycerol gelatin, and photographed within one day at ×10 magnification.

For the compound `O=C(CO)[C@@H](O)[C@H](O)[C@H](O)[C@H](O)CO` [sedoheptulose, Sedoheptulose], in data set [1] (FIG. 3F), the “TNFa mRNA” value is on record as “less”. Moreover, in data set [1] (FIG. 3G), the “IL-6 mRNA” value is given as “less”. In data set [2], the “glucose-induced ECAR” value was “reduced”. Besides, the “pit formation by osteoclasts” value in data set [3] (7 days in Corning Osteo Assay plates, GFS vs GF media, FIG. 5C) is reported as “reduced”. In data set [3] (WT osteoclasts in GF or GFS media, FIG. 5D), the larger resorption-pits result is on record as “found only in the absence of sedoheptulose”. Besides, the “increase in sedoheptulose serum levels” value in data set [4] is “approximately two-fold”. Moreover, the “G6PD activity distribution (re-localization of G6PD, reduced activity in the inner space of the cells)” value in data set [5] is “same phenotype”.
